{"source": "paper PMC5001167", "about": "(Journal of medicinal chemistry, 2016)", "key": {"Long-Evans rats": {"test_system": "Long-Evans rats", "experiment": "Oxycodone-induced conditioned place preference", "assay_type": "in vivo, rat"}, "C57BL/6J mice": {"test_system": "C57BL/6J mice", "experiment": "Locomotor activity, basal and oxycodone-induced, open-field chambers"}, "delta opioid receptor": {"biological_target": "delta opioid receptor (Homo sapiens, UniProt P41143)", "sequence (P41143 whole entry)": "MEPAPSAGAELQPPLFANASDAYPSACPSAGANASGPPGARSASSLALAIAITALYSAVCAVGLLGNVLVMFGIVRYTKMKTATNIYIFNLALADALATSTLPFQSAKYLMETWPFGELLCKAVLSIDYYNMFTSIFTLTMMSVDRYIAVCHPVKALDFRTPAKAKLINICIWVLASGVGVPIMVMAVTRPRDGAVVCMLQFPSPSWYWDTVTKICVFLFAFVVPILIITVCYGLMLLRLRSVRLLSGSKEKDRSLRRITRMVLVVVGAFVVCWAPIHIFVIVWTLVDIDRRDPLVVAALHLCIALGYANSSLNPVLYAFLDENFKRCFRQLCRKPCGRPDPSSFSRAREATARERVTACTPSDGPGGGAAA", "experiment": "Opioid receptor binding at 10 μM", "conditions": "at a concentration of 10 μM"}, "mu opioid receptor": {"biological_target": "mu opioid receptor (Homo sapiens, UniProt P35372)", "sequence (P35372 whole entry)": "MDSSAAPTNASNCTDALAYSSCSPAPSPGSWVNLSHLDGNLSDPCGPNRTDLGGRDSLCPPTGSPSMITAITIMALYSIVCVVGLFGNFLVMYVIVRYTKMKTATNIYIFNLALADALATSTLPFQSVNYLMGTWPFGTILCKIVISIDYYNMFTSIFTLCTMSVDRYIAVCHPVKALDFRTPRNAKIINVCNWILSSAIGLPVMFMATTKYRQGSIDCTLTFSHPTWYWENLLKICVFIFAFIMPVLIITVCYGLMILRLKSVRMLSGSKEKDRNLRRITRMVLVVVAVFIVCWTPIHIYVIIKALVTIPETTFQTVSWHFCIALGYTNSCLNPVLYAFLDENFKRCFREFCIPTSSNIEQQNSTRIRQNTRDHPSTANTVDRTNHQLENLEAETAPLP", "experiment": "Opioid receptor binding at 10 μM", "conditions": "at a concentration of 10 μM"}, "kappa opioid receptor": {"biological_target": "kappa opioid receptor (Homo sapiens, UniProt P41145)", "sequence (P41145 whole entry)": "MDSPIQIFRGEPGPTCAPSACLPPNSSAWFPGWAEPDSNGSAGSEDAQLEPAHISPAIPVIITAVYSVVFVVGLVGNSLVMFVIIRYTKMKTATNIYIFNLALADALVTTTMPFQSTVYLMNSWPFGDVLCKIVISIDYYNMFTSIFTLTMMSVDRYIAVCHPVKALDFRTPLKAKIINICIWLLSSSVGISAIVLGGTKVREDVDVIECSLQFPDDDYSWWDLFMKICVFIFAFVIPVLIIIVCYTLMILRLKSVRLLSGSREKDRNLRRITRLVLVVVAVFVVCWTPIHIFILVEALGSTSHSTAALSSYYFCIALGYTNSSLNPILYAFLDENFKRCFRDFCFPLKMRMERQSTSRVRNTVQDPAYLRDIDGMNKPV", "experiment": "Opioid receptor binding at 10 μM", "conditions": "at a concentration of 10 μM"}, "5HT1A": {"biological_target": "T1, 5HT1A (Homo sapiens, UniProt P08908)", "T1 sequence (P08908 1-422)": "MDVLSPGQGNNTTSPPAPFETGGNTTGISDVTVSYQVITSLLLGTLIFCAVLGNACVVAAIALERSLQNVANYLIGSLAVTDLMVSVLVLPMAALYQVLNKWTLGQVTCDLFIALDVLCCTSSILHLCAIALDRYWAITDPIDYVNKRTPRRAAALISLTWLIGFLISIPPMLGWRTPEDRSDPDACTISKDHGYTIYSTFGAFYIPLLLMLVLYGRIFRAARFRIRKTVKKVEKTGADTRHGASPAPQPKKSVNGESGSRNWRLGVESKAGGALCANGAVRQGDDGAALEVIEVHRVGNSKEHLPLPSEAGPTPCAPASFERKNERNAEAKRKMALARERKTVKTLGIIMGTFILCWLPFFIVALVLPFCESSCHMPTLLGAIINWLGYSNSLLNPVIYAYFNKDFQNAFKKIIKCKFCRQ", "experiment": "5HT1A [35S]GTPγS binding functional assay", "assay_type": "biochemical"}, "D2R": {"biological_target": "D2R", "conditions": "read-out: D2R Ki; eticlopride; cited from earlier work"}, "dogs": {"test_system": "dogs", "conditions": "cited from earlier work"}, "[1]": {"conditions": "cited from earlier work"}, "human D4.4R": {"biological_target": "T2, human D4.4R (Homo sapiens, UniProt P21917)", "T2 sequence (P21917 1-419)": "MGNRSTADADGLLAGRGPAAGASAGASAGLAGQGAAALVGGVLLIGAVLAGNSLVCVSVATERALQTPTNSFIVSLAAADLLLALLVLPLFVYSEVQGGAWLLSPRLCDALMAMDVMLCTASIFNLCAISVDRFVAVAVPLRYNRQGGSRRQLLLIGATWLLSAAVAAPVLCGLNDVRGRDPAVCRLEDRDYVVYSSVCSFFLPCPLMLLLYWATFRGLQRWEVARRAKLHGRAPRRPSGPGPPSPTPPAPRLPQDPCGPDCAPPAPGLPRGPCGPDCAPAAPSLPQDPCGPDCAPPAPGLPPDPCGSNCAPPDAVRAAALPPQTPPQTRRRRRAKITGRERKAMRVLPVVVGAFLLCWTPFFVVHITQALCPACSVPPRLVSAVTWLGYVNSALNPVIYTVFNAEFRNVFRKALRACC", "assay_type": "binding", "conditions": "read-out: D4.4R Ki ± S.E.M.; full-length analogues, Table 2; HEK 293"}, "human D2LR": {"biological_target": "human D2LR (Homo sapiens, UniProt P14416)", "sequence (P14416 whole entry)": "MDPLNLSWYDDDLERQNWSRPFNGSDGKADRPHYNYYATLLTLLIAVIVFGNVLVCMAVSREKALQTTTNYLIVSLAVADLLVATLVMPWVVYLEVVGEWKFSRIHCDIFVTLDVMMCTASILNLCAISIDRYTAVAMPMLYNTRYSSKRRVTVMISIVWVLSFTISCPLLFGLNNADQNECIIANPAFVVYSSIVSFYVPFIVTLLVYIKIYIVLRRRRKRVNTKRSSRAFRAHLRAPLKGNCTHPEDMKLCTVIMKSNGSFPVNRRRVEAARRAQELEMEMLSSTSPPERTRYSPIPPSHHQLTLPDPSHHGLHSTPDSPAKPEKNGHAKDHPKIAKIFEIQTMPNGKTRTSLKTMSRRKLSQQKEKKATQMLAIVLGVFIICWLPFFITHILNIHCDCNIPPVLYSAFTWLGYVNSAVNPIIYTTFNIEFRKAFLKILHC", "assay_type": "binding", "conditions": "read-out: D2LR Ki ± S.E.M.; full-length analogues, Table 2; HEK 293"}, "human D3R": {"biological_target": "human D3R (Homo sapiens, UniProt P35462)", "sequence (P35462 whole entry)": "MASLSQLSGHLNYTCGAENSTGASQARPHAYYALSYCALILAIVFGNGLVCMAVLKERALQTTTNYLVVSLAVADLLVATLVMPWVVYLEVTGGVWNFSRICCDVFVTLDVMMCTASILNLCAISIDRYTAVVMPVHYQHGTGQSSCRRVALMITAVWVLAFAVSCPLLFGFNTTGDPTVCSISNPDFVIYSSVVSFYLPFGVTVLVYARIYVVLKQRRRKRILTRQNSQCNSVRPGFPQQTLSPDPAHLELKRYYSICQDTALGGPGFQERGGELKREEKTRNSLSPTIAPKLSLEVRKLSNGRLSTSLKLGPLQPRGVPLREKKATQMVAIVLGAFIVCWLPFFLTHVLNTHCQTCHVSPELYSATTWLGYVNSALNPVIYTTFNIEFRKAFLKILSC", "assay_type": "binding", "conditions": "Table 2"}}, "note": "“Also recorded” adds a separate entry of the source."}
{"compound": "CCc1cc(Cl)c(OC)c(N2CCN(CC(O)CCNC(=O)c3cc4ccccc4[nH]3)CC2)c1", "note": "(stereo not shown) [Compound 19, N-(4-(4-(3-Chloro-5-ethyl-2-methoxyphenyl)piperazin-1-yl)-3-hydroxybutyl)-1H-indole-2-carboxamide]", "values": [{"measurement": "effect on oxycodone-induced CPP at 15 mg/kg", "setting": "Long-Evans rats; rats, 15 mg/kg i.p., p<0.05 compared to (Vehicle + oxycodone) group", "value": "significant reduction"}, {"measurement": "CPP produced by compound alone", "setting": "Long-Evans rats; rats, 15 mg/kg i.p., paired with saline, 15 mg/kg", "value": "did not produce CPP; also recorded: did not produce significant place preference"}, {"measurement": "effect on oxycodone-induced CPP", "setting": "Long-Evans rats; rats, 5, 15 mg/kg i.p. 15 min before each oxycodone injection (3 mg/kg i.p.)", "value": "dose-dependently attenuated; also recorded: dose-dependently blocked"}, {"measurement": "effect on acute oxycodone-induced hyperactivity", "setting": "C57BL/6J mice; mice, 5, 15 mg/kg i.p. 15 min before oxycodone 4 mg/kg, day 2", "value": "attenuated; also recorded: dose-dependently inhibited"}, {"measurement": "effect on basal locomotor activity", "setting": "C57BL/6J mice; mice, 5, 15 mg/kg i.p. alone, day 1", "value": "no effect on locomotion"}, {"measurement": "effect on acquisition of repeated oxycodone-induced locomotor sensitization", "setting": "C57BL/6J mice; mice, 5, 15 mg/kg i.p. daily before oxycodone 4 mg/kg, day 2-day 6", "value": "dose-dependently blocked"}, {"measurement": "effect on expression of oxycodone prime-induced locomotor sensitization after 2 days of withdrawal", "setting": "C57BL/6J mice; mice, day 9, oxycodone 4 mg/kg challenge without pretreatment", "value": "blocked; also recorded: long-lasting inhibition"}, {"measurement": "binding to delta opioid receptor", "setting": "delta opioid receptor", "value": "does not bind"}, {"measurement": "binding to mu opioid receptor", "setting": "mu opioid receptor", "value": "does not bind"}, {"measurement": "binding to kappa opioid receptor", "setting": "kappa opioid receptor", "value": "does not bind"}]}
{"compound": "CCc1cccc(N2CCN(CCCCNC(=O)c3cc4ccccc4[nH]3)CC2)c1Cl", "note": "[Compound 22, N-(4-(4-(2-Chloro-3-ethylphenyl)piperazin-1-yl)butyl)-1H-indole-2-carboxamide]", "values": [{"measurement": "functional profile at 5HT1A", "setting": "5HT1A", "value": "functional agonists"}]}
{"compound": "CCc1cccc(N2CCN(CCCCNC(=O)c3cc4ccccc4o3)CC2)c1Cl", "note": "[Compound 24, N-(4-(4-(2-Chloro-3-ethylphenyl)piperazin-1-yl)butyl)benzofuran-2-carboxamide]", "values": [{"measurement": "functional profile at 5HT1A", "setting": "5HT1A", "value": "functional agonists"}]}
{"compound": "CCc1cccc(N2CCN(CC(O)CCNC(=O)c3cc4ccccc4o3)CC2)c1Cl", "note": "(stereo not shown) [Compound 25, N-(4-(4-(2-Chloro-3-ethylphenyl)piperazin-1-yl)-3-hydroxybutyl)benzofuran-2-carboxamide]", "values": [{"measurement": "functional profile at 5HT1A", "setting": "5HT1A", "value": "functional agonists"}]}
{"compound": "CCc1cc(Cl)c(OC)c(C(=O)NC[C@@H]2CCCN2CC)c1O", "note": "[Eticlopride]", "values": [{"measurement": "Ki", "setting": "D2R", "value": 0.086, "unit": "nM"}]}
{"compound": "Cc1ncoc1-c1nnc(SCCCN2C[C@@H]3C[C@]3(c3ccc(C(F)(F)F)cc3F)C2)n1C", "note": "[GSK598,809]", "values": [{"measurement": "blood pressure effect in the presence of cocaine", "setting": "dogs", "value": "significant hypertension"}]}
{"compound": "O=C(NCC[C@@H](O)CN1CCN(c2cccc(Cl)c2Cl)CC1)c1cc2ccccc2[nH]1", "note": "[R-PG648]", "values": [{"measurement": "metabolic stability", "setting": "[1]", "value": "metabolic instability"}]}
{"compound": "COc1ccc2c3c1O[C@H]1C(=O)CC[C@@]4(O)[C@@H](C2)N(C)CC[C@]314", "note": "[oxycodone, reference compound]", "values": [{"measurement": "CPP produced by oxycodone", "setting": "Long-Evans rats; rats, oxycodone 3 mg/kg i.p. versus saline conditioning", "value": "produced significant CPP"}, {"measurement": "effect of oxycodone on locomotor activity", "setting": "C57BL/6J mice; mice, oxycodone 4 mg/kg i.p.", "value": "significant increases in locomotor activity"}]}
{"compound": "N-(4-(4-(2-Chloro-3-ethylphenyl)piperazin-1-yl)butyl)-6-methylimidazo[2,1-b]thiazole-5-carboxamide [Compound 28]", "values": [{"measurement": "Ki", "setting": "human D4.4R", "value": "143 ± 3.18", "unit": "nM"}, {"measurement": "Ki", "setting": "human D2LR", "value": "4.65 ± 1.24", "unit": "nM"}, {"measurement": "D2R/D3R", "setting": "human D3R; binding selectivity, ratio of Ki values (fold)", "value": 5}, {"measurement": "Ki", "setting": "human D3R; read-out: D3R Ki ± S.E.M., full-length analogues, HEK 293", "value": "0.941 ± 0.13", "unit": "nM"}]}
